Usually IC50 stands for the concentration that inhibits the measured activity by half.

These results are taken from ChEMBL document CHEMBL5143538, “Discovery, Structure Correction, and Biosynthesis of Actinopyrones, Cytotoxic Polyketides from the Deep-Sea Hydrothermal-Vent-Derived Streptomyces sp. SCSIO ZS0520” (J Nat Prod, 2022).

What all share (type): functional, cell-based
In assay [1] the test system is MDA-MB-231. Description: Cytotoxicity against human MDA-MB-231 cells assessed as inhibition of cell proliferation measured after 68 hrs by MTT assay. The following applies: MDA-MB-231, 68 h. On the technique in general: Tetrazolium assays rely on reduction of a dye to a coloured formazan, in cell work by metabolically active cells.
Assay [2] deals with NCI-H460. Nature of the assay: Cytotoxicity against human NCI-H460 cells assessed as inhibition of cell proliferation measured after 68 hrs by MTT assay. The following applies: NCI-H460, 68 h.
Assay [3] deals with A549. Description: Cytotoxicity against human A549 cells assessed as inhibition of cell proliferation measured after 68 hrs by MTT assay. The following applies: A549, 68 h.
The subject of assay [4] is HT-29. Description: Cytotoxicity against human HT-29 cells assessed as inhibition of cell proliferation measured after 68 hrs by MTT assay. The following applies: HT-29, 68 h.
In assay [5] the test system is MDA-MB-435. Nature of the assay: Cytotoxicity against human MDA-MB-435 cells assessed as inhibition of cell proliferation measured after 68 hrs by MTT assay. The following applies: MDA-MB-435, 68 h.
Assay [6] has as its system Huh-7. Description: Cytotoxicity against human Huh-7 cells assessed as inhibition of cell proliferation measured after 68 hrs by MTT assay. The following applies: Huh-7, 68 h.

Structures are written as SMILES. Where only a bound is given, the exact number is not on record here.

For the compound `C/C=C(\C)[C@@H](O)[C@@H](C)/C=C(C)/C=C/C[C@H](C)/C=C/c1oc(=O)c(C)c(O)c1C`, the IC50 in assay [1], in assay [2], in assay [3], in assay [4], in assay [5] and in assay [6] was over 50 µM in each case.
In the case of `C/C=C(\C)[C@@H](O)[C@@H](C)/C=C(C)/C=C/C[C@H](C)/C=C/c1oc(OC)c(C)c(=O)c1C`, the IC50 in assay [1], in assay [2], in assay [3], in assay [4], in assay [5] and in assay [6] was over 50 µM each time.
`C/C=C(\C)[C@@H](O)[C@@H](C)/C=C(C)/C=C/C[C@H](C)/C=C/C(=O)CC`: the IC50 in assay [1], in assay [2], in assay [3], in assay [4], in assay [5] and in assay [6] was over 50 µM each time.
In the case of `C/C=C(\C)[C@@H](O[C@@H]1O[C@H](CO)[C@@H](O)[C@H](O)[C@H]1O)[C@@H](C)/C=C(C)/C=C/C[C@H](C)/C=C/c1oc(OC)c(C)c(=O)c1C` (stereo in doubt), the IC50 in assay [1] stood at 1 µM; in assay [2], 0.66 µM; in assay [3], 0.75 µM; in assay [4] it was 2.22 µM; in assay [5] it was 0.26 µM; in assay [6], 1.18 µM.
Turning to `COc1cccc2c1C(=O)c1c(O)c3c(c(O)c1C2=O)C[C@@](O)(C(=O)CO)C[C@@H]3O[C@H]1C[C@H](N)[C@@H](O)[C@H](C)O1` [EPIRUBICIN], the IC50 in assay [1] is 1.2 µM; in assay [2], 0.06 µM; in assay [3], 1.32 µM; in assay [4], 3.36 µM; in assay [5], 0.23 µM; in assay [6] it was 9.12 µM.
